Where no end group is shown, it is not given here.
Experiments:
[1] = tested on: skin biopsy wound in C56b1/6 mice; assay: In vivo skin biopsy trial; settings: 4 mm biopsy punch; 6 μg/g SC day 1, 3, 5 and 7; vs saline, particularly later time points
Protocol: C56b1/6 mice at ˜10 months of age were anesthetized, the skin at the back of the neck was shaved, and two wounds made on the skin with a 4 mm biopsy punch. The mice were injected subcutaneously with either saline or 300 myostatin antagonist at 6 μg/g of body weight at day 1, 3, 5 and 7 after injury. The mice were allowed to heal for 5, 7, 14, 21 and 28 days, after which they were culled and the skin processed for histology.
For the histology, skin samples were fixed in 10% formalin, embedded and mounted in paraffin and stained with Masson's Trichrome stain. The sections were analysed for the size of wound area for each day following the treatments, and the values plotted.

mdx mice = assay: Mdx in vivo trial
Protocol: An in vivo trial was performed in which 4 week old mdx mice were injected 3× per week with 300 (6 μg/g) or saline (10 mice in each treatment) for 4 weeks. Body weights were recorded regularly and blood was collected for creatine kinase activity to assess the extent of muscle damage. Grip tests were performed as a measure of strength. After 4 weeks of treatment mice were culled and individual hind limb muscles collected for protein expression analysis—Pax7 & MyoD (satellite cell activation/myogenesis), and histology.
Protein was extracted from three hind limb muscles, biceps femoris, tibialis anterior and gastrocnemius. 15 μg of protein was separated on 4-12% SDS PAGE, transferred to nitrocellulose membrane and immunoprobed with Pax7 and MyoD.
Ten micron transverse sections were cut from the midbelly region of each m. gastrocnemius. Muscle sections were stained with haematoxylin and eosin (H & E) to visualise and measure areas of necrosis and regeneration. These areas were analysed using an Olympus BX50 microscope (Olympus, Tokyo, Japan), a SPOT-RT 4.01 camera and software (Diagnostic Instruments, Sterling Heights, Mich.). Areas were measured using Image-Pro Plus (Media Cybernetics, Silver Spring, Md.).
Blood was collected by tail-bleeding into 75 mm heparinised microhematocrit tubes. Tubes were centrifuged in a Micro-hematocrit centrifuge (Adams) for 5 minutes and then the plasma removed. The recovered plasma was centrifuged again at 2500×g for 5 minutes and then stored at −80° C. until analysis. Plasma was separated from the red blood cells within 2 hours of blood collection to minimise hemolysis. Creatine kinase activity was determined using CK N-acetyl-L-cysteine creatine kinase kit (Beckman Coulter) within 6 weeks of plasma collection. Muscle strength was assessed using a grip strength apparatus (MK-380S, Muromachi; Tokyo, Japan) at the beginning, mid-point and end of the trial. The maximum force exerted by a mouse while being pulled backward by the tail is recorded in Newtons. The mean of three grip tests for each mouse was calculated and the mean maximal force of 10 mice per group was determined.

[2] = tested on: C57B mice injected with Dexamethasone; assay: In vivo cachexia trial (Dexamethasone-induced)
Protocol: A study of chronic cachexia was designed whereby C57B mice, 4 weeks of age, were injected with the glucocorticoid drug Dexamethasone daily at a concentration of 1 mg/kg body weight. Three treatment groups were designed: 5 mice receiving daily injections of saline, 5 mice receiving daily injections of Dexamethasone and 5 mice receiving daily injections of Dexamethasone plus 300 antagonist at a concentration of 6μg/g body weight. Body weight of the mice was recorded daily and monitored closely for signs of cachexia. Food and water consumption was recorded to ensure that loss in body weight was not due to a loss of appetite or thirst. Body weights, fat-pad weights, and MyoD and Pax7 expression were assessed.

[3] = 6 μg/g 3x per week for 4 weeks, biceps femoris, tibialis anterior and gastrocnemius
[4] = m. gastrocnemius sections, H & E

myostatin antagonist 300: recombinant peptide, amino acids 267-300 of bovine myostatin, with N terminal and C terminal tag (SEQ ID NO: 6) (DFGLDCDEHSTESRCCRYPLTVDFEAFGWDWIIA; cysteine pairing not given here; also: N- and C-terminal tags; listed as Homo sapiens)
wound area [1]: smaller wound area | MyoD protein level (western blot) (mdx mice; [3]): substantial upregulation | Pax7 protein level (western blot) (mdx mice; [3]): substantial upregulation | change in plasma creatine kinase activity from commencement to completion of the trial (mdx mice; 4 weeks, vs saline): larger decrease | grip strength (mdx mice; after 4 weeks of treatment): significant increase | percentage necrotic area of muscle (mdx mice; [4]): Reduced Necrosis | percentage regenerating area of muscle (mdx mice; [4]): Increased Regeneration | Pax7 expression (Western blot) ([2]; Dexamethasone and 300, right gastrocnemius, p<0.01): significant up-regulation (rescue) | MyoD expression (Western blot) ([2]; Dexamethasone and 300, right gastrocnemius, p<0.05): significant up-regulation (rescue) | increase in left inguinal fat-pad weight ([2]; Dexamethasone plus 300): 33.2% | increase in left retroperitoneal fat-pad weight ([2]; Dexamethasone plus 300): 23.3% | increase in right inguinal fat-pad weight ([2]; Dexamethasone plus 300): 39% | increase in right retroperitoneal fat-pad weight ([2]; Dexamethasone plus 300): 39.2% | average body weight loss ([2]; co-treatment Dexamethasone 1 mg/kg and 300 6 μg/g daily): smaller average body weight loss
